In publication PMC5756101 (Journal of neuro-oncology, 2017):
Read-outs that look alike come from different tables or passages of the source.

Legend:
[1] = test system: patients with recurrent malignant glioma; conditions: single agent, cited from earlier work
clinical = conditions: human, in vivo
GBM = conditions: second line treatment of patients with GBM; cited from earlier work

Compound: Cn1cncc1[C@@](N)(c1ccc(Cl)cc1)c1ccc2c(c1)c(-c1cccc(Cl)c1)cc(=O)n2C [tipifarnib, Tipifarnib]
- predominant DLT ([1]; patients not taking EIAEDs): myelosuppression
- predominant DLT ([1]; patients on EIAEDs): rash
- AUC from 0–12 hours at MTD, those receiving EIAEDs compared with those not receiving EIAEDs [1]: approximately halved
- change of AUC between daily or twice daily dosing (clinical): do not seem to change significantly
- AUC (clinical; 100 mg): 761.5 ± 468.8 ng·h/mL
- T1/2 (clinical; 100 mg): 3.35 ± 1.29 h
- AUC (clinical; 100 mg, AUC): 904 ± 377 ng·h/mL
- half-life (clinical; 100 mg, T1/2): 6.57 ± 1.18 h

Compound: bevacizumab
- 6-months progression free survival (PFS) (GBM): 29–45%
